The text below walks through data of patent US20250127165A1, “USE OF 2-AMINO-3-PHENYLBUTYRIC ACID OR 2,6-DIAMINO-3-METHYLHEXANOIC ACID AS PLANT IMMUNE RESISTANCE INDUCER” (NANJING TIANNONG BIOTECHNOLOGY CO., LTD., priority 2021, published 2025).

In experiment [1] the test system is Pseudomonas syringae PstDC3000. Briefly: Induced resistance of Arabidopsis thaliana to Pseudomonas syringae infection. Type of experiment: in vivo. Particulars: for disease index / number of bacteria in the leaves, CFU (mg) / number of bacteria in the leaves, CFU/mg: 3 days after inoculation; for decrease of the number of bacteria per milligram of leaves: compared with blank control. The method, then:
2-amino-3-phenylbutyric acid was dissolved in sterile water and then gradiently diluted with sterile water into solutions of 100 nM, 1,000 nM, and 10,000 nM, and a blank control was set up, while 0.02% Tween 20 was added as surfactant. The Pseudomonas syringae PstDC3000 was coated on the LB plate and cultured at 28° C. for 48 hours. Single colonies were picked and inoculated into a 50 mL centrifuge tube containing 2 mL of medium, cultured at 28° C. on a shaker at 250 rpm. The change of OD600 value of the bacterial solution was monitored every 1-2 hours until it reached 0.8, and the culture of the bacteria was stopped. 1 mL of the bacterial solution was transferred into a 1.5 mL sterile centrifuge tube and centrifuged at 8,000 rpm for 2 min to collect the precipitate. The supernatant was removed, and the precipitate was washed 3 times with 10 mM magnesium chloride and centrifuged, and finally the PstDC3000 was resuspended in 10 mM magnesium chloride to reach an OD600 value of […] for later use. The Arabidopsis thaliana seeds were soaked in 75% alcohol for 3 min, then washed 4 times with sterile water and planted in a Petri dish containing ½ MS medium. Twelve seeds were planted in each petri dish, and ½ MS petri dishes with seeds were vernalized at 4° C. for 3 d to break dormancy and then placed in a culture room at 22° C. with a light intensity of 100 μE m^−2s^−1 (16 h light/8 h darkness). When the seedlings grew for 2 weeks, the 2-amino-3-phenylbutyric acid solutions at different concentrations were slowly poured into the petri dish until the whole Arabidopsis thaliana seedlings were submerged, and kept for 2-3 minutes, and then the treatment solution was poured out of the petri dish. The treatment was performed once every 24 h for a total of 2 treatments. 24 hours after the second treatment, the PstDC3000 suspension (OD600=0.01) was inoculated onto the leaves of Arabidopsis thaliana by the same submerge method. After inoculation, the petri dish was closed with a medical breathable adhesive tape and placed in the culture room for further culture. After 3 days, the number of bacteria in different treatments was determined and the incidence of Arabidopsis thaliana was observed. The disease index was calculated in the same manner as that in Example 2.
Grading standard of Disease injury caused by PstDC3000 (per leave): • Grade 0: No diseased patches on the leaves; • Grade 1: The area of diseased spots accounts for 0%-10% of the whole leaf; • Grade 2: The area of diseased spots accounts for 10%-25% of the whole leaf; • Grade 3: The area of diseased spots accounts for 25%-50% of the whole leaf; • Grade 4: The area of diseased spots accounts for 50%-75% of the whole leaf; • Grade 5: The area of diseased spots accounts for 75%-100% of the whole leaf.

In a further experiment the test system is wheat powdery mildew. Briefly: Induced resistance of wheat seedlings to powdery mildew infection (pot test). Type of experiment: in vivo, wheat (NAU0686). Particulars: for disease index / relative immunization effect: concentration higher than 1,000 nM. How it is done:
2-amino-3-phenylbutyric acid was dissolved in distilled water and then gradiently diluted with distilled water into solutions of 10 nM, 100 nM, 1,000 nM, and 10,000 nM, and a blank control was set up. After germination, wheat (NAU0686) seeds were planted in sterilized soil culture pot, and cultured in a greenhouse at 23° C. (+1° C.) and 12-h light/dark conditions. When the seedlings grew to the 1-leaf-1-heart stage, a solution of 2-amino-3-phenylbutyric acid at the above concentrations was sprayed onto the stems and leaves of wheat seedlings, and repeated the treatment at 24-hour intervals for a total of two treatments. After 24 hours, fresh wheat powdery mildew spores were uniformly sprinkled onto the wheat leaves, and each treatment comprised three pots of seedlings, with 20 plants per pot. After 10 days, the disease grade of wheat in each treatment group was investigated, and the morbidity degree was recorded according to the grading standard of wheat powdery in the “Pesticides-Guidelines for the Field Efficacy Trails” (I), and the disease index and the relative immunization effect were calculated in the same manner as those of tomato spotted wilt.
Grading Standard of Wheat Powdery Mildew (per leaf): • Grade 1: The area of diseased spots accounts for 5% or less of the whole leaf area; • Grade 3: The area of diseased spots accounts for 6%-15% of the whole leaf; • Grade 5: The area of diseased spots accounts for 16%-25% of the whole leaf; • Grade 7: The area of diseased spots accounts for 26%-50% of the whole leaf; • Grade 9: The area of diseased spots accounts for 50% or more of the whole leaf area.

In the case of `CC(CCCN)C(N)C(=O)O` (stereo not drawn) [2,6-diamino-3-methylhexanoic acid], the “decrease of the disease index” value in experiment [1] (100 nM) turned out to be 50.96%; in experiment [1] (1,000 nM) it was 56.15%; in experiment [1] (10,000 nM), 76.82%. Besides, the results for the disease index (in experiment [1] (100 nM); in experiment [1] (1,000 nM); with wheat powdery mildew) were 42.01 ± 1.36 b, 37.57 ± 0.24 c and “lower than 50”, respectively. Also, the “number of bacteria in the leaves, CFU (mg)” value in experiment [1] (100 nM) is recorded as 8.42 × 10^5 CFU (mg); in experiment [1] (1,000 nM), 5.12 × 10^5 CFU (mg); in experiment [1] (10,000 nM), 1.58 × 10^5 CFU (mg). Also, the results for the “decrease of the number of bacteria per milligram of leaves” value in experiment [1] (100 nM), in experiment [1] (1,000 nM) and in experiment [1] (10,000 nM) were 73.93%, 84.15% and 95.11%, respectively. For the same compound, the “number of the bacteria per mg leaves” value in experiment [1] (10,000 nM) is 1.58×10^5 per mg leaves. In addition, the “relative immunization effect (%)” value is reported as 28.13% in the experiment with wheat powdery mildew (10 nM), 48.99% in the experiment with wheat powdery mildew (100 nM), 65.26% in the experiment on wheat powdery mildew (1,000 nM) and 73.45% in the experiment on wheat powdery mildew (10,000 nM). For the same compound, the relative immunization effect entry with wheat powdery mildew is “more than 50%”.

For the compound `CC(c1ccccc1)C(N)C(=O)O` (stereo not drawn) [2-amino-3-phenylbutyric acid], the “decrease of the disease index” value is 52.57% in experiment [1] (100 nM), 58.45% in experiment [1] (1,000 nM) and 81.82% in experiment [1] (10,000 nM). The disease index is on record as 38.04 ± 1.04 b in experiment [1] (100 nM), 33.33 ± 4.17 c in experiment [1] (1,000 nM) and “lower than 50” with wheat powdery mildew. Further, the “number of bacteria in the leaves, CFU/mg” value was 2.40 × 10^5 CFU/mg in experiment [1] (100 nM), 2.13 × 10^5 CFU/mg in experiment [1] (1,000 nM) and 1.34 × 10^5 CFU/mg in experiment [1] (10,000 nM). The “decrease of the number of bacteria per milligram of leaves” value in experiment [1] (100 nM) was determined as 92.05%; in experiment [1] (1,000 nM), 92.94%; in experiment [1] (10,000 nM), 95.56%. In experiment [1] (10,000 nM), the “number of the bacteria per mg leaves” value is recorded as 1.34×10^5 per mg leaves. Besides, the “relative immunization effect (%)” value is 19.88% with wheat powdery mildew (10 nM), 30.77% in the experiment on wheat powdery mildew (100 nM), 55.38% in the experiment with wheat powdery mildew (1,000 nM) and 66.92% in the experiment on wheat powdery mildew (10,000 nM). Also, the relative immunization effect entry with wheat powdery mildew is recorded as “more than 50%”.
